From US4054659A, “5,7 Dihydroxy-1-(trimethoxybenzyl)-1,2,3,H-tetrahydroisoquinolines and use thereof” (Tanabe Seiyaku Co., Ltd., priority 1974, dated 1977)

What was measured:
[1] = test system: serotonin-creatinin sulfate-induced bronchoconstriction; test: Preventive effects against serotonin-creatinin sulfate-induced bronchoconstriction (bronchodilating activity) in anesthetized cats; assay type: in vivo; conditions: for Preventive effects against bronchoconstriction: cats, 10 μg/kg, duodenum
From the text: The 5,7-dihydroxy-tetrahydroisoquinoline derivative (I) of the present invention or a pharmaceutically acceptable acid addition salt thereof has potent bronchodilating activity and is useful as a bronchodilator. Moreover, as compared with 6,7-dihydroxy-1-(3,4,5-trimethoxybenzyl)-1,2,3,4-tetrahydroisoquinoline, the 5,7-dihydroxy-tetrahydroisoquinoline derivative (I) of the present invention is more useful because of the longer duration of its point bronchodilating activity and/or lesser side effects (e.g., lesser increase of the heart rate). […] However, the bronchodilating activity of the former lasts for more than 3.5 hours at its maximum level, whereas the latter decreases to about 1/3 the maximum level after 3.5 hours.
(§1) Cats were anesthetized with sodium pentobarbital (40 mg/.kg, i.p.). Under artificial respiration (13 - 15 ml of air/kg/stroke, 30 strokes/minute) thereof, the cats were immobilized by intraveous injection of gallamine triethyodide (8 mg/kg). Serotonin.creatinin sulfate (=bronchoconstrictor) was injected intravenously to the cats at the dose of 20 μg/kg, and the intratracheal pressure was measured by means of a pressure transducer. Then, each one of test compounds was administered to the duodenum of the cats at the dose of 10 μg/kg, and the intratracheal pressure and the heart rate were measured with the passage of time. The bronchodilating activity was estimated by the preventive effects (%) of each test compound against bronchoconstriction.

[2] = 50% lethal dose (LD50) by intravenous injection to mice; conditions: mouse, in vivo
From the text: The toxicity of the 5,7-dihydroxytetrahydroisoquinoline derivative (I) of the present invention is considerably low.

heart rate = test: Increase of heart rate after duodenal administration in anesthetized cats; assay type: in vivo; conditions: 10 μg/kg, duodenum
Method: as §1

[3] = 15 minutes after administration
[4] = 30 minutes after administration
[5] = 45 minutes after administration
[6] = 60 minutes after administration
[7] = 75 minutes after administration
[8] = 90 minutes after administration
[9] = 120 minutes after administration
[10] = 150 minutes after administration
[11] = 180 minutes after administration
[12] = 210 minutes after administration

Compound | Preventive effects against bronchoconstriction ([1]; 5 minutes after administration) [%] | Preventive effects against bronchoconstriction [1, 3] [%] | Preventive effects against bronchoconstriction [1, 4] [%] | Preventive effects against bronchoconstriction [1, 5] [%] | Preventive effects against bronchoconstriction [1, 6] [%] | Preventive effects against bronchoconstriction [1, 7] [%] | Preventive effects against bronchoconstriction [1, 8] [%] | Preventive effects against bronchoconstriction [1, 9] [%] | Preventive effects against bronchoconstriction [1, 10] [%] | Preventive effects against bronchoconstriction [1, 11] [%] | Preventive effects against bronchoconstriction [1, 12] [%] | also measured
COc1cc(CC2NCCc3c(O)cc(O)cc32)cc(OC)c1OC.Cl (stereo not shown) [A, 5,7-dihydroxy-1-(3,4,5-trimethoxybenzyl)-1,2,3,4-tetrahydroisoquinoline hydrochloride] | 8.5 ± 3.2 | 47.9 ± 8.5 | 63.5 ± 9.9 | 69.7 ± 8.7 | 71.1 ± 7.1 | 70.7 ± 6.8 | 72.5 ± 6.1 | 71.0 ± 5.6 | 70.2 ± 6.4 | 69.1 ± 5.7 | 64.6 ± 7.4 | Duration of bronchodilating activity at its maximum level ([1]; after duodenal administration): more than 3.5 hours; Maximum preventive effects compared with 6,7-dihydroxy-1-(3,4,5-trimethoxybenzyl)-1,2,3,4-tetrahydroisoquinoline (hydrochloride) ([1]; duodenal administration): almost the same maximum preventive effects; LD50 [2]: ~51 mg/kg; Increase of heart rate (Number of heart beats increased/minute) (heart rate; 5 minutes after administration): 1.3 ± 0.3 heart beats increased/minute; Increase of heart rate (Number of heart beats increased/minute) (heart rate; [3]): 10.6 ± 3.4 heart beats increased/minute; Increase of heart rate (Number of heart beats increased/minute) (heart rate; [4]): 22.2 ± 6.5 heart beats increased/minute; Increase of heart rate (Number of heart beats increased/minute) (heart rate; [5]): 21.3 ± 5.2 heart beats increased/minute; Increase of heart rate (Number of heart beats increased/minute) (heart rate; [6]): 20.0 ± 4.4 heart beats increased/minute; Increase of heart rate (Number of heart beats increased/minute) (heart rate; [7]): 18.7 ± 3.8 heart beats increased/minute; Increase of heart rate (Number of heart beats increased/minute) (heart rate; [8]): 17.8 ± 3.0 heart beats increased/minute; Increase of heart rate (Number of heart beats increased/minute) (heart rate; [9]): 17.2 ± 2.3 heart beats increased/minute; Increase of heart rate (Number of heart beats increased/minute) (heart rate; [10]): 15.2 ± 2.1 heart beats increased/minute; Increase of heart rate (Number of heart beats increased/minute) (heart rate; [11]): 13.7 ± 1.4 heart beats increased/minute; Increase of heart rate (Number of heart beats increased/minute) (heart rate; [12]): 12.0 ± 1.4 heart beats increased/minute
COc1cc(CC2NCCc3cc(O)c(O)cc32)cc(OC)c1OC.Cl (stereo not shown) [B, 6,7-dihydroxy-1-(3,4,5-trimethoxybenzyl)-1,2,3,4-tetrahydroisoquinolin hydrochloride, reference compound] | 21.1 ± 8.6 | 71.2 ± 7.6 | 77.6 ± 5.2 | 73.9 ± 2.6 | 67.2 ± 3.4 | 62.3 ± 5.1 | 54.7 ± 6.0 | 45.5 ± 7.5 | 38.0 ± 8.7 | 31.6 ± 9.5 | 26.0 ± 7.4 | Bronchodilating activity remaining after 3.5 hours, as fraction of the maximum level ([1]; after 3.5 hours, duodenal administration): about 1/3
